Test results taken from US10874669B2 (WAYNE STATE UNIVERSITY, priority 2018, dated 2020).

How the values were obtained:
cloned D2L receptors = cloned D2L receptors (Rattus norvegicus (Rat), UniProt P61169); experiment: [3H]spiperone displacement, cloned D2L receptors in HEK cells; format: binding; conditions: means±SEM for 3 experiments
Excerpt: The following table provides inhibition constants for displacing [3H]spiperone binding to the cloned D2L and D3 receptors expressed in HEK cells. […] NR=Not repeated.

cloned D3 receptors = cloned D3 receptors (Rattus norvegicus (Rat), UniProt P19020); experiment: [3H]spiperone displacement, cloned D3 receptors in HEK cells; format: binding; conditions: means±SEM for 3 experiments
Excerpt: The following table provides inhibition constants for displacing [3H]spiperone binding to the cloned D2L and D3 receptors expressed in HEK cells. Results are means±SEM for 3 experiments each performed in triplicate. NR=Not repeated.

cloned rat D2L receptors = cloned rat D2L receptors (Rattus norvegicus (Rat), UniProt P61169); experiment: [3H]spiroperidol competition binding, rat D2L receptors in HEK-293 cells; conditions: values of Table 3; for Ki: rat D2 in HEK-293 cells; for D2/D3: ratio of Ki values
Excerpt: (§1) All these procedures were described by us previously.

cloned rat D3 receptors = cloned rat D3 receptors (Rattus norvegicus (Rat), UniProt P19020); experiment: [3H]spiroperidol competition binding, rat D3 receptors in HEK-293 cells; conditions: rat D3 in HEK-293 cells; values of Table 3
Method: A well established radioligand competition assay was carried out to evaluate binding affinity of the test compounds and were compared with that of the reference agent (S)-5-OH-DPAT (Table 3). Binding affinity to rat DA D2 and D3 receptors expressed in HEK-293 cells was determined as described by us previously. […] This indicated highest tolerance of the 4-substituted carbazole derivative for interaction with the D2 and D3 receptors.
as §1

human DA D2 receptors = human DA D2 receptors (Homo sapiens (Human), UniProt P14416); experiment: [35S]GTPγS binding stimulation, human D2 receptors in CHO cells; format: biochemical
human DA D3 receptors = human DA D3 receptors (Homo sapiens (Human), UniProt P35462); experiment: [35S]GTPγS binding stimulation, human D3 receptors in CHO cells; format: biochemical
[1] = system: reserpine-induced hypolocomotion in rats; experiment: Reversal of reserpine-induced hypolocomotion in rats; conditions: 10 μMol/kg, ip
Method: In this model depletion of catecholamines by reserpine results in catalepsy in rats.
The following commercially available drug was used in the experiment: reserpine hydrochloride (Alfa Aesar). […] The compounds for this study were administered in a volume of 0.1-0.2 mL for subcutaneous administration and 0.5-0.7 ml for interaperitoneal administration into each rat.
In rodent studies, animals were male and female Sprague-Dawley rats from Harlan (Indianapolis, Ind.) weighing 220-225 g unless otherwise specified. Animals were maintained in sawdust-lined cages in a temperature and humidity controlled environment at 22±1° C. and 60±5% humidity, respectively. A 12 h light/dark cycle was maintained, with lights on from 6:00 a.m. to 6:00 p.m. They were group-housed with unrestricted access to food and water. All experiments were performed during the light component.
Reserpine (5.0 mg/kg, sc) was administered 18 h before the injection of drug or vehicle. The rats were placed individually in the chambers for 1 h for acclimatization before administration of the test drugs or vehicle. Immediately after administration of drug or vehicle, animals were individually placed in Opto-Varimex 4 animal activity monitor chamber (Columbus Instruments, Ohio, USA) to start measuring locomotor activity. Locomotion was monitored for 6 h. […] The data were presented as horizontal activity (HACTV). […] The data were analyzed by one-way analysis of variance (ANOVA) followed by Dunnett's post hoc test.

[2] = compared with maximum stimulation by full agonist DA

Sequence of cloned D3 receptors (P19020 whole entry): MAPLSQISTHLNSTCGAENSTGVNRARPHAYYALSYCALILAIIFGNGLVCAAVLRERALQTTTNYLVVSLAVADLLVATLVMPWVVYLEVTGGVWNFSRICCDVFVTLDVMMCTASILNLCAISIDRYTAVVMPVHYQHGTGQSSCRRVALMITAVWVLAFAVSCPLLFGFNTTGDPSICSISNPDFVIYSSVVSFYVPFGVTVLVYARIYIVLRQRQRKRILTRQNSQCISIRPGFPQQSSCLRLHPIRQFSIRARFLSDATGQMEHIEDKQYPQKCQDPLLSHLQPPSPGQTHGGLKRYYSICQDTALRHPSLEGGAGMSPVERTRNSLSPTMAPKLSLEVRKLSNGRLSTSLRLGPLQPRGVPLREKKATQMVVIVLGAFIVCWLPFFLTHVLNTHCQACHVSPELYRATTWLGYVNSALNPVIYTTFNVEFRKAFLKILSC
Sequence of cloned rat D3 receptors (P19020 whole entry): as above
Sequence of cloned rat D2L receptors (P61169 whole entry): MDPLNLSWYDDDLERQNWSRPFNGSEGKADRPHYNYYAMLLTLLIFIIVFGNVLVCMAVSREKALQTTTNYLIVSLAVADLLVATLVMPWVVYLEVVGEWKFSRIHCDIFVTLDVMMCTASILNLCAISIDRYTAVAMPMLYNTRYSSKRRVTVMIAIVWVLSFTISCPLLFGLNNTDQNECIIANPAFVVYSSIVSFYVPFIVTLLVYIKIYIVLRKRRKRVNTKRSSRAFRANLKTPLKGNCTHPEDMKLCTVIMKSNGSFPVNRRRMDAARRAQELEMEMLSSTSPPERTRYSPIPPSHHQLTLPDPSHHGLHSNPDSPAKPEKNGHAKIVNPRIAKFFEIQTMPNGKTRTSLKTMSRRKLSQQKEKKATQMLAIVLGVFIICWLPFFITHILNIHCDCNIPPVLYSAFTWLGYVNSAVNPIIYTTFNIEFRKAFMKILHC
Sequence of cloned D2L receptors (P61169 whole entry): as above
Sequence of human DA D3 receptors (P35462 whole entry): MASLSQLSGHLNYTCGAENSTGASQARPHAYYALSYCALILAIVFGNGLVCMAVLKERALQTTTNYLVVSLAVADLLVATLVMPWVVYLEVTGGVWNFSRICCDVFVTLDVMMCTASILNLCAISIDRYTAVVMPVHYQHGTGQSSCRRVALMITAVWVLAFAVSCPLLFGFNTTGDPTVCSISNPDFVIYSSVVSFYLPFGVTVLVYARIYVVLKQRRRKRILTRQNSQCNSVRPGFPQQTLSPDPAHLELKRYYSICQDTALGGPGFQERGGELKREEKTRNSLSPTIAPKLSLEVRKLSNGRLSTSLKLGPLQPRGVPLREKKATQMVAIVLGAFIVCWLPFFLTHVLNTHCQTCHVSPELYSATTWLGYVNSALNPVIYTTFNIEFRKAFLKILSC
Sequence of human DA D2 receptors (P14416 whole entry): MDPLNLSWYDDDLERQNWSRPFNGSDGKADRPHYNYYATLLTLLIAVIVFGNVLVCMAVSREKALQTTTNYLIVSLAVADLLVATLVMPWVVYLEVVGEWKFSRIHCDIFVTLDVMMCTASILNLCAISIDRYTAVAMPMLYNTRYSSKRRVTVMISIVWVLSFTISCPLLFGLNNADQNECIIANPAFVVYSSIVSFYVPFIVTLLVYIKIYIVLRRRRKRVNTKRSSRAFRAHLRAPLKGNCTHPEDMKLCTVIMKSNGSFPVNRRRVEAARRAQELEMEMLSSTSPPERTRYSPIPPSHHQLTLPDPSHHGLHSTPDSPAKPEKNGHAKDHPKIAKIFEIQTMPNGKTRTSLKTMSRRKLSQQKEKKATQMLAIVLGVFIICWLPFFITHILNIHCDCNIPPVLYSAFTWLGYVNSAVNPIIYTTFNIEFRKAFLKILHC

| Structure (SMILES) | Ki (cloned D2L receptors) [nM] | Ki (cloned D3 receptors) [nM] | Ki (cloned rat D2L receptors) [µM] | D2/D3 (cloned rat D2L receptors) | Ki (cloned rat D3 receptors) [µM] | other results |
| --- | --- | --- | --- | --- | --- | --- |
| CCCN(CCC/C=C\c1ccc(O)c(OC)c1)C1CCc2nc(N)sc2C1 (centres unmarked) [Compound 39, (Z)-4-(5-((2-amino-4,5,6,7-tetrahydrobenzo[d]thiazol-6-yl)(propyl)amino)pent-1-en-1-yl)-2-methoxyphenol] | 233 ± 8 | 23.3 ± 4 |  |  |  |  |
| CCCN(CCCc1ccc(O)c(OC)c1)C1CCc2nc(N)sc2C1 (centres unmarked) [Compound 22, 4-(3-((2-Amino-4,5,6,7-tetrahydrobenzo[d]thiazol-6-yl)(propyl)amino)propyl)-2-methoxyphenol] | 2400 | 15.8 ± 2 |  |  |  |  |
| CCCN(CCCCCc1ccc(O)c(OC)c1)C1CCc2nc(N)sc2C1 (centres unmarked) [Compound 23, 4-(5-((2-Amino-4,5,6,7-tetrahydrobenzo[d]thiazol-6-yl)(propyl)amino)pentyl)-2-methoxyphenol] | 175 ± 8 |  |  |  |  |  |
| CCCN(CCN1CCN(c2cccc3[nH]c4ccccc4c23)CC1)[C@H]1CCc2nc(N)sc2C1 [(−)-91c, (S)—N^6-(2-(4-(9H-carbazol-4-yl)piperazin-1-yl)ethyl)-N^6-propyl-4,5,6,7-tetrahydrobenzo[d]thiazole-2,6-diamine] |  |  |  |  |  | EC50 (human DA D2 receptors; CHO cells, read-out: EC50 (GTPγS), D2): 0.0222 µM; Emax (human DA D2 receptors; [2]): 57%; EC50 (human DA D3 receptors; CHO cells, read-out: EC50 (GTPγS), D3): 0.00167 µM; Emax (human DA D3 receptors; [2]): 82% |
| CCCN(CCCCCc1ccc(O)c(O)c1)C1CCc2nc(N)sc2C1 (centres unmarked) [Compound 34, 4-(5-((2-Amino-4,5,6,7-tetrahydrobenzo[d]thiazol-6-yl)(propyl)amino)pentyl)benzene-1,2-diol] | 116 ± 8 | 2.59 ± 0.31 |  |  |  |  |
| CCCN(CCCC1(O)C=CC(O)=CC1)C1CCc2nc(N)sc2C1 (centres unmarked) [Compound 54, 4-(3-((2-Amino-4,5,6,7-tetrahydrobenzo[d]thiazol-6-yl)(propyl)amino)propyl)-benzene-1,4-diol] |  | 11.9 ± 1.9 |  |  |  |  |
| CCCN(C/C=C/c1ccc(O)c(OC)c1)C1CCc2nc(N)sc2C1 (centres unmarked) [Compound 63, (E)-4-(3-((2-amino-4,5,6,7-tetrahydrobenzo[d]thiazol-6-yl)(propyl)amino)prop-1-en-1-yl)-2-methoxyphenol] | 4630 | 39.1 ± 5.4 |  |  |  |  |
| CCCN(CCCCCc1ccc(O)c(O)c1)[C@@H]1CCc2nc(N)sc2C1 [(−)-34, (R)-4-(5-((2-Amino-4,5,6,7-tetrahydrobenzo[d]thiazol-6-yl)(propyl)amino)pentyl)benzene-1,2-diol] | 65.7 ± 11.7 | 1.42 ± 0.14 |  |  |  |  |
| CCCN(CCCCCc1ccc(O)c(OC)c1)[C@@H]1CCc2nc(N)sc2C1 [(−)-23, (R)-4-(5-((2-Amino-4,5,6,7-tetrahydrobenzo[d]thiazol-6-yl)(propyl)amino)pentyl)-2-methoxyphenol] | 68.3 ± 12 | 1.57 ± 0.41 |  |  |  |  |
| CCCN(CCC)CCc1cccc2c1CC(=O)N2 [ropinirole, reference compound] |  |  |  |  |  | duration of locomotor activation ([1]; locomotion monitored for 6 h): shorter duration of action; reversal of reserpine-induced akinesia / hypolocomotion (horizontal activity) ([1]; reserpine 5 mg/kg sc, 18 h pretreatment, rats): fast onset of activation of locomotion |

Second part, led by results:

| Ki (cloned D2L receptors) [nM] | Ki (cloned D3 receptors) [nM] | Ki (cloned rat D2L receptors) [µM] | D2/D3 (cloned rat D2L receptors) | Ki (cloned rat D3 receptors) [µM] | Structure (SMILES) | other results |
| --- | --- | --- | --- | --- | --- | --- |
|  |  | 0.0769 | 9.86 | 0.0078 | CCCN(CCN1CCN(c2cccc3[nH]c4ccccc4c23)CC1)C1CCc2nc(N)sc2C1 (centres unmarked) [Compound 90c, N^6-(2-(4-(9H-carbazol-4-yl)piperazin-1-yl)ethyl)-N^6-propyl-4,5,6,7-tetrahydrobenzo[d]thiazole-2,6-diamine] |  |
|  |  | 0.435 | 65.9 | 0.0066 | CCCN(CCN1CCN(CCn2c3ccccc3c3ccccc32)CC1)C1CCc2nc(N)sc2C1 (centres unmarked) [Compound 100, N^6-(2-(4-(2-(9H-carbazol-9-yl)ethyl)piperazin-1-yl)ethyl)-N^6-propyl-4,5,6,7-tetrahydrobenzo[d]thiazole-2,6-diamine] |  |
|  |  | 0.0616 |  | 0.00194 | CCCN(CCN1CCN(c2ccc3[nH]c4ccccc4c3c2)CC1)[C@H]1CCc2c(O)cccc2C1 [(−)-95b, (S)-6-((2-(4-(9H-carbazol-3-yl)piperazin-1-yl)ethyl)(propyl)amino)-5,6,7,8-tetra-hydronaphthalen-1-ol] |  |
|  |  | 0.0826 | 12 | 0.00718 | CCCN(CCN1CCN(CCn2c3ccccc3c3ccccc32)CC1)[C@H]1CCc2nc(N)sc2C1 [(−)-101, (S)—N^6-(2-(4-(2-(9H-carbazol-9-yl)ethyl)piperazin-1-yl)ethyl)-N^6-propyl-4,5,6,7-tetrahydrobenzo[d]thiazole-2,6-diamine] |  |
|  |  | 0.504 | 128 | 0.00394 | CCCN(CCN1CCN(c2ccc3c(c2)[nH]c2ccccc23)CC1)[C@H]1CCc2nc(N)sc2C1 [(−)-91a, (S)—N^6-(2-(4-(9H-carbazol-2-yl)piperazin-1-yl)ethyl)-N^6-propyl-4,5,6,7-tetrahydrobenzo[d]thiazole-2,6-diamine] |  |
|  |  | 0.902 | 146 | 0.00618 | CCCN(CCN1CCN(c2ccc3c(c2)[nH]c2ccccc23)CC1)C1CCc2nc(N)sc2C1 (centres unmarked) [Compound 90a, N^6-(2-(4-(9H-carbazol-2-yl)piperazin-1-yl)ethyl)-N^6-propyl-4,5,6,7-tetrahydrobenzo-[d]thiazole-2,6-diamine] |  |
|  | 1.01 ± 0.28 |  |  |  | CCCN(CCCCCc1cc(O)ccc1O)C1CCc2nc(N)sc2C1 (centres unmarked) [Compound 35, 2-(5-((2-Amino-4,5,6,7-tetrahydrobenzo[d]thiazol-6-yl)(propyl)amino)pentyl)benzene-1,4-diol] |  |
| 162 ± 7 | 14.2 ± 3.8 |  |  |  | CCCN(CCN1CCN(c2ccc3c(c2)C(=O)C(=O)N3)CC1)[C@H]1CCc2nc(N)sc2C1 [Compound 70] |  |
|  | 0.78 ± 0.2 |  |  |  | CCCN(CCCCCc1cc(O)ccc1O)[C@@H]1CCc2nc(N)sc2C1 [(−)-36, (R)-2-(5-((2-Amino-4,5,6,7-tetrahydrobenzo[d]thiazol-6-yl)(propyl)amino)pentyl)benzene-1,4-diol] |  |
|  |  | 0.612 | 196 | 0.00312 | CCCN(CCN1CCN(c2ccc3[nH]c4ccccc4c3c2)CC1)C1CCc2nc(N)sc2C1 (centres unmarked) [Compound 90b, N^6-(2-(4-(9H-carbazol-3-yl)piperazin-1-yl)ethyl)-N^6-propyl-4,5,6,7-tetrahydrobenzo[d]thiazole-2,6-diamine] |  |
